Data as given in US10751301B2, “Methods for inhibiting conversion of choline to trimethylamine (TMA)” (The Procter & Gamble Company, priority 2017, dated 2020).
Read-outs that look alike come from different tables or passages of the source. Each block holds one compound with its values, some of them ahead of it.

Legend:
mice (C57b1/6) = test: Preclinical screening method, plasma TMAO in mice on 1% choline added diet (Example 4); format: in vivo; conditions: oral gavage once daily, 310 mg/kg/day
[1] = molecular target: recombinant P. mirabilis Cut C/D lysate (Proteus mirabilis, UniProt B4EYG1); test: biochemical
[2] = molecular target: recombinant D. alaskensis Cut C/D lysate (Oleidesulfovibrio alaskensis, UniProt Q30W70); test: biochemical
Sequence of recombinant D. alaskensis Cut C/D lysate (Q30W70 whole entry): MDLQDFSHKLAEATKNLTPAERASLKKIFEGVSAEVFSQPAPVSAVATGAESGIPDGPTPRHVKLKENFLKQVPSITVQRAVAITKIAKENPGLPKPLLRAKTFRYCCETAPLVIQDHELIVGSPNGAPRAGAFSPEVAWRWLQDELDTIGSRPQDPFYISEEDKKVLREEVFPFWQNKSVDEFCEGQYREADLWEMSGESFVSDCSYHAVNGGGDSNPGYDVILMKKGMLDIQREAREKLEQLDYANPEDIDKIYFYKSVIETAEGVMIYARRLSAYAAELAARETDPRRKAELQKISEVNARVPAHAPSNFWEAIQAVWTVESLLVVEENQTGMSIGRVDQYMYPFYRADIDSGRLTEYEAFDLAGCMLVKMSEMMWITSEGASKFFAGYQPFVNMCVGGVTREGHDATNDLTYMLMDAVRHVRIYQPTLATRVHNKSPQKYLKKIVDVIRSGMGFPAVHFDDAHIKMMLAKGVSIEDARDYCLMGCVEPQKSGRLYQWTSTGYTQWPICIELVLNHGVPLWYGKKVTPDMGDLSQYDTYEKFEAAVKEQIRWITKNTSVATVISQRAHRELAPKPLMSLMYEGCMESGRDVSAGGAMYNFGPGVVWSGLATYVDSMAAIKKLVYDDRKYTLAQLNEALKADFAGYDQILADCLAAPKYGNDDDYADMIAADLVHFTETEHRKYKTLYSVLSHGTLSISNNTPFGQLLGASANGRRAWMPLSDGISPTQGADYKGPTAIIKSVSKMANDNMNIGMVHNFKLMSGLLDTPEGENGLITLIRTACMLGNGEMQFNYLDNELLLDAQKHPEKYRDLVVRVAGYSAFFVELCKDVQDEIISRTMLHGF

[3] = system: whole cell wild-type P. mirabilis; test: Inhibition of conversion of choline to TMA by whole cell wild-type P. mirabilis (Example 5); format: cell-based
C57b1/6 female mice = test: Rapid preclinical method, d9-choline challenge in mice (Example 6); format: in vivo; conditions: for Calculated EC50 (mg/kg) compared to Vehicle Control: mice, oral gavage with 2 mg d9-Choline, Time 3 hr
[4] = system: Proteus mirabilis 29906 (Pm) lysate; test: Inhibition of formation of TMA from choline in Proteus mirabilis lysate (Example 2); format: biochemical; conditions: read-out: TMA Inhibition (IC50, mol/L)
[5] = system: human fecal polymicrobial community; test: Human fecal polymicrobial incubation with d9-choline, TMA inhibition (Example 3); format: cell-based
[6] = system: fecal polymicrobial community; conditions: male, human
[7] = Proteus mirabilis; read-out: EC50 (mol/L) whole cell wild-type P. mirabilis
[8] = Pm lysate 1.5 mg/mL protein, 50 μM d9-choline chloride, 37° C. two hours
[9] = Homo sapiens, 0.2% fecal slurry, 50 μM d9-choline chloride, 20 hours, 37° C., anaerobic, ND=not detectable, read-out: Example 3, TMA Inhibition (IC50, mol/L)

Compound: C[S+](CCO)CC(=O)O (stereo not shown) [ID 15, 2-Acetic acid-(2-hydroxyethyl)-methyl-sulfonium]
Remaining plasma TMAO as a percentage of plasma TMAO in same day vehicle control (% of control remaining) (mice (C57b1/6); Days 5): 69%
IC50 ([1]; read-out: IC50 (mol/L) recombinant P. mirabilis Cut C/D lysate): 430 nM
IC50 ([2]; read-out: IC50 (mol/L) recombinant D. alaskensis Cut C/D lysate): 45 nM
EC50 ([3]; read-out: EC50 (mol/L) whole cell wild-type P. mirabilis): 62 nM

Compound: C=CC[S+](C)CCO (stereo not shown) [ID 1, Allyl-(2-hydroxyethyl)-methyl-sulfonium]
Remaining plasma TMAO as a percentage of plasma TMAO in same day vehicle control (% of control remaining) (mice (C57b1/6); Days 1): 18%
IC50 [1]: 98.2 nM
IC50 [2]: 307 nM
EC50 [3, 7]: 73 nM
Calculated EC50 (mg/kg) compared to Vehicle Control (C57b1/6 female mice): 0.87 mg/kg

Compound: C[S+](CI)CCO (stereo not shown) [ID 6, Iodomethyl-(2-hydroxyethyl)-methyl-sulfonium]
Remaining plasma TMAO as a percentage of plasma TMAO in same day vehicle control (% of control remaining) (mice (C57b1/6); Days 1): 3%
IC50 [1]: 360 nM
IC50 [2]: 3700 nM
EC50 ([3]; Proteus mirabilis, read-out: EC50 (mol/L) whole cell wild-type P. mirabilis): 200 nM
Calculated EC50 (mg/kg) compared to Vehicle Control (C57b1/6 female mice): 1.10 mg/kg

IC50 [4, 8]: 58900 nM
IC50 [5, 9]: 612000 nM
Compound: CCCCCC[S+](C)CCO (stereo not shown) [compound 4, Hexyl-(2-hydroxyethyl)-methyl-sulfonium]

Compound: [O-][S+]1CCOCC1 [compound 19, 4-oxido-1,4-oxathian-4-ium]
IC50 [4]: 234000 nM
IC50 ([5]; read-out: Example 3, TMA Inhibition (IC50, mol/L)): 24300 nM

Compound: C#CC[S+](C)CCO (stereo not shown) [compound 2, Propargyl-(2-hydroxyethyl)-methyl-sulfonium]
IC50 [4, 8]: 38 nM
IC50 [5, 9]: 2980 nM

Compound: C=CC[S+](C)C [compound 21]
IC50 [4, 8]: 66.1 nM
IC50 [5, 9]: 1460 nM

IC50 [4, 8]: 302000 nM
IC50 [5, 9]: 1640 nM
Compound: C[S+](CCO)c1ccccc1 (stereo not shown) [compound 16, Phenyl-(2-hydroxyethyl)-methyl-sulfonium]

IC50 [4, 8]: 251 nM
Compound: C[S+](C/C=C/Br)CCO (stereo not shown) [compound 10, [(E)-3-bromoallyl]-(2-hydroxyethyl)-methyl-sulfonium]

IC50 [4, 8]: 200000 nM
Compound: C#CC[S+](CCO)c1ccccc1 (stereo not shown) [compound 5, (2-hydroxyethyl)(phenyl)(prop-2-yn-1-yl)sulfonium]

Compound: C=C(C)C[S+](C)CCO (stereo not shown) [compound 9, 2-hydroxyethyl-methyl-(2-methylallyl)sulfonium]
IC50 [4, 8]: 166000 nM

Compound: C/C=C/C[S+](C)CCO (stereo not shown) [ID 8, [(E)-but-2-enyl]-(2-hydroxyethyl)-methyl-sulfonium]
Remaining plasma TMAO as a percentage of plasma TMAO in same day vehicle control (% of control remaining) (mice (C57b1/6); Days 1): 62%
IC50 [1]: 1500 nM
IC50 [2]: 270 nM
EC50 [3, 7]: 9500 nM

Compound: OCC[S+]1CCOCC1 [compound 23, 2-(1,4-oxathian-4-ium-4-yl)ethanol]
IC50 [4]: 10700 nM

Compound: C/C=C/C[S+](C)CCO (stereo not shown) [compound 8, [(E)-but-2-enyl]-(2-hydroxyethyl)-methyl-sulfonium]
IC50 [4, 8]: 15.1 nM

IC50 [4, 8]: 190000 nM
IC50 [5, 9]: 760000 nM
Compound: CC[S+](CCO)c1ccccc1 (stereo not shown) [compound 17, Phenyl-(2-hydroxyethyl)-ethyl-sulfonium]

IC50 [4, 8]: 29500 nM
IC50 [5, 9]: 557 nM
Compound: CCCC[S+](C)CCO (stereo not shown) [compound 14, Butyl-(2-hydroxyethyl)-methyl-sulfonium]

Compound: C#CC[S+](C)C [ID 20, Dimethyl(prop-2-ynyl)sulfonium]
Remaining plasma TMAO as a percentage of plasma TMAO in same day vehicle control (% of control remaining) (mice (C57b1/6); Days 1): 0.35%
IC50 [1]: 13 nM
IC50 [2]: 68 nM
EC50 [3, 7]: 75000 nM
Calculated EC50 (mg/kg) compared to Vehicle Control (C57b1/6 female mice): 9.00 mg/kg

IC50 [4, 8]: 55000 nM
Compound: C#CC[S+]1CCOCC1 [compound 24, 4-prop-2-ynyl-1,4-oxathian-4-ium]

IC50 [4, 8]: 129000 nM
IC50 [5, 9]: 22000 nM
Compound: [O-][S+](CCO)c1ccccc1 (stereo not shown) [compound 18, 2-hydroxyethyl-oxido-phenyl-sulfonium]

Compound: C=CC[S+](C)CCO (stereo not shown) [compound 1, Allyl-(2-hydroxyethyl)-methyl-sulfonium]
IC50 [4, 8]: 45.7 nM
IC50 [5, 9]: 41700 nM

Compound: CC[S+](C)CCO.[I-] (stereo not shown) [Methylethylthioethanol iodide]
IC50 ([5]; Homo sapiens, read-out: IC50, inhibits the conversion of choline to TMA, assay of Example 3): 8890 nM
EC50, inhibits the conversion of choline to TMA, assay of EXAMPLE 6 (C57b1/6 female mice; time not given): 0.8 mg/kg

IC50 [4, 8]: 15800 nM
Compound: C=CC[S+]1CCOCC1 [compound 7, 4-allyl-1,4-oxathian-4-ium]

IC50 [4, 8]: 44700 nM
IC50 [5, 9]: 12700 nM
Compound: C[S+](CCO)Cc1ccccc1 (stereo not shown) [compound 13]

Compound: C=C(C)C[S+](C)CCO (stereo not shown) [ID 9, 2-hydroxyethyl-methyl-(2-methylallyl)sulfonium]
IC50 [1]: 5900 nM
IC50 [2]: 650 nM
EC50 [3, 7]: 23000 nM

IC50 [4, 8]: 3800 nM
IC50 [5, 9]: 101000 nM
Compound: C=CC[S+]([O-])CCO (stereo not shown) [compound 22, Allyl-(2-hydroxyethyl)-oxido-sulfonium]

Compound: C#CC[S+](C)CCO (stereo not shown) [ID 2, Propargyl-(2-hydroxyethyl)-methyl-sulfonium]
IC50 [1]: 47 nM
IC50 [2]: 65 nM
EC50 [3, 7]: 930 nM
Calculated EC50 (mg/kg) compared to Vehicle Control (C57b1/6 female mice): 85.50 mg/kg

Compound: C[S+](CCO)CCBr (stereo not shown) [compound 11, (2-bromoethyl)(2-hydroxyethyl)methylsulfonium]
IC50 [4]: 219 nM
IC50 ([5]; Homo sapiens, 20 h, read-out: Example 3, TMA Inhibition (IC50, mol/L)): 3050 nM

Compound: C#CC[S+](C)C [compound 20]
IC50 [4, 8]: 10 nM
IC50 [5, 9]: 108 nM

Compound: C[S+](CI)CCO (stereo not shown) [compound 6]
IC50 [4]: 2040 nM
Lowest concentration tested at which cell viability was 10% or lower [6]: 250 µM

Compound: C=CC[S+](C)C [ID 21, Allyl(dimethyl)sulfonium]
IC50 [1]: 250 nM
IC50 [2]: 410 nM
EC50 [3, 7]: 160 nM
Calculated EC50 (mg/kg) compared to Vehicle Control (C57b1/6 female mice): 0.19 mg/kg

IC50 [4, 8]: 398000 nM
IC50 [5, 9]: 51300 nM
Compound: CCCCC[S+](C)CCO (stereo not shown) [compound 3, Pentyl-(2-hydroxyethyl)-methyl-sulfonium]
